Patent US9133183B2, “Imidazolidinones and analogs exhibiting anti-cancer and anti-proliferative activities” (Deciphera Pharmaceuticals, LLC, priority 2013, dated 2015)

Tests used:
[1] = biological target: unphosphorylated c-KIT kinase (uKIT, Seq. ID no. 2) (Homo sapiens (Human), UniProt P10721); assay: uKit kinase assay (coupled pyruvate kinase/lactate dehydrogenase); type: biochemical; conditions: enzymatic assay, ATP 2000 μM
Procedure, shortened: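 Unphosphorylated KIT (12 nM, N-terminal GST fusion) was run with 1 mg/mL polyE4Y, 2000 μM ATP and 10 mM MgCl2 in Tris buffer (pH 7.5, 0.2% octyl-glucoside, 1% DMSO). ADP was coupled via PK/LDH, with NADH loss tracked at A340 for 4 h at 30 °C. Rates at 3–4 h gave % inhibition and IC50.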

osteoclast precursors = assay: Osteoclast tartrate-resistant acid phosphatase assay; type: cell-based; conditions: Osteoclast, 7-14 days, RANKL and M-CSF
[2] = biological target: unphosphorylated c-FMS kinase (uFMS, Seq. ID no. 1) (Homo sapiens (Human), UniProt P07333); assay: uFMS kinase assay (ADP production coupled to pyruvate kinase/lactate dehydrogenase); type: biochemical; conditions: enzymatic assay, ATP 500 μM; read-out: uFMS
unphosphorylated c-FMS kinase (uFMS, Seq. ID no. 1), sequence (P07333 538-972): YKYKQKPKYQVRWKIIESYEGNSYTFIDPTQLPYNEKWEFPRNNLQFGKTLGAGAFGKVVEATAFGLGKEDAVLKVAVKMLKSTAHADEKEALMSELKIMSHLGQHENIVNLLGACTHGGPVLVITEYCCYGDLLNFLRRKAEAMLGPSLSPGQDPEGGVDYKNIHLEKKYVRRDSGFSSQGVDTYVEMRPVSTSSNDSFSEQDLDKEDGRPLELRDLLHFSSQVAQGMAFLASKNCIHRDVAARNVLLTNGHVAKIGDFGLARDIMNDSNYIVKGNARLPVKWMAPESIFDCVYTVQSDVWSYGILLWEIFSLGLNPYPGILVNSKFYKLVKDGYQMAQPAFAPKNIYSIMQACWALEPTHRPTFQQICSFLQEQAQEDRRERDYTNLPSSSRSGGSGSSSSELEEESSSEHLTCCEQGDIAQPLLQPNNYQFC
Procedure, shortened: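 Unphosphorylated FMS (10 nM) with polyE4Y 1 mg/mL and 500 μM ATP in 90 mM Tris pH 7.5, 10 mM MgCl2, 0.2% octyl-glucoside, 1% DMSO. ADP formation was coupled via pyruvate kinase/LDH to NADH oxidation, followed at A340 for 4 h at 30° C.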

M-NFS-60 cells = assay: M-NFS-60 cell proliferation assay (resazurin); type: cell-based; conditions: 67 h incubation
Procedure, shortened: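 Cells kept in medium containing 20 ng/mL mouse recombinant M-CSF. Fluorescence was read at ex 540/em 600 nm, and IC50 was fitted from percent inhibition across a range of inhibitor concentrations.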

[3] = biological target: unphosphorylated PDGFRβ kinase (uPDGFRβ, Seq. ID No. 3) (Homo sapiens (Human), UniProt P09619); assay: Unphosphorylated PDGFRβ kinase assay (coupled pyruvate kinase/lactate dehydrogenase); type: biochemical; conditions: enzymatic assay, ATP 500 μM
unphosphorylated PDGFRβ kinase (uPDGFRβ, Seq. ID No. 3), sequence (P09619 557-1106): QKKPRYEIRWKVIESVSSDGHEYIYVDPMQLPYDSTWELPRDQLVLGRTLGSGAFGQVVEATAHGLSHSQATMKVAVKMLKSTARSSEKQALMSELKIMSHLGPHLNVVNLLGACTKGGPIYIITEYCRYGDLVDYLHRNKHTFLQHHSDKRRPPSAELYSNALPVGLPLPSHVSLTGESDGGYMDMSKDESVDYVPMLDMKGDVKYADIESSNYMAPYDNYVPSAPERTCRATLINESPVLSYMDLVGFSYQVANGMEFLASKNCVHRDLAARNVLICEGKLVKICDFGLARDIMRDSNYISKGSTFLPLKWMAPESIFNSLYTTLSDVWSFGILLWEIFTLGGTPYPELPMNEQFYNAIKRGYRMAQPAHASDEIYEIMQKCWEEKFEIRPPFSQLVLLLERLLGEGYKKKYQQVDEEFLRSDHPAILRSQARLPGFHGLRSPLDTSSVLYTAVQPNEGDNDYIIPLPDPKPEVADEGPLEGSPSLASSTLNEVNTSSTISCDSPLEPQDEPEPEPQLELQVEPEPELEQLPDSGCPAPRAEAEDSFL
Method: Unphosphorylated PDGFRβ (uPDGFRβ) Kinase (Seq. ID No. 3) Assay
Activity of unphosphorylated PDGFRβ kinase (uPDGFRβ, Seq. ID No. 3) was determined by following the production of ADP from the kinase reaction with ATP and poly E4Y as substrates through coupling with the pyruvate kinase/lactate dehydrogenase system (e.g., Schindler et al. Science (2000) 289: 1938-1942). In this assay, the oxidation of NADH (thus the decrease at A340 nm) was continuously monitored spectrophometrically. The reaction mixture (100 μL) contained PDGFRβ (DeCode, 15.7 nM), polyE4Y (2.5 mg/mL), MgCl2 (10 mM), pyruvate kinase (4 units), lactate dehydrogenase (0.7 units), phosphoenol pyruvate (1 mM) and NADH (0.28 mM) and ATP (500 μM) in a 90 mM Tris buffer containing 0.2% octyl-glucoside and 1% DMSO, at pH 7.5. The inhibition reaction was started by mixing serial diluted test compound with the above reaction mixture. The absorption at 340 nm was monitored continuously for 4 h at 30° C. on a Polarstar Optima or Synergy 2 plate reader. The reaction rate was calculated using the 1.5 to 2.5 h time frame. Percent inhibition was obtained by comparison of reaction rate with that of a control (i.e., with no test compound). IC50 values were calculated from a series of percent inhibition values determined at a range of inhibitor concentrations using software routines as implemented in the GraphPad Prism software package.
uPDGFRβ Kinase Sequence (Residues 557-1106) Used for Screening (Seq ID No. 3)

unphosphorylated c-KIT kinase (uKIT, Seq. ID no. 2), sequence (P10721 other isoform, or with tags, fused parts or gaps): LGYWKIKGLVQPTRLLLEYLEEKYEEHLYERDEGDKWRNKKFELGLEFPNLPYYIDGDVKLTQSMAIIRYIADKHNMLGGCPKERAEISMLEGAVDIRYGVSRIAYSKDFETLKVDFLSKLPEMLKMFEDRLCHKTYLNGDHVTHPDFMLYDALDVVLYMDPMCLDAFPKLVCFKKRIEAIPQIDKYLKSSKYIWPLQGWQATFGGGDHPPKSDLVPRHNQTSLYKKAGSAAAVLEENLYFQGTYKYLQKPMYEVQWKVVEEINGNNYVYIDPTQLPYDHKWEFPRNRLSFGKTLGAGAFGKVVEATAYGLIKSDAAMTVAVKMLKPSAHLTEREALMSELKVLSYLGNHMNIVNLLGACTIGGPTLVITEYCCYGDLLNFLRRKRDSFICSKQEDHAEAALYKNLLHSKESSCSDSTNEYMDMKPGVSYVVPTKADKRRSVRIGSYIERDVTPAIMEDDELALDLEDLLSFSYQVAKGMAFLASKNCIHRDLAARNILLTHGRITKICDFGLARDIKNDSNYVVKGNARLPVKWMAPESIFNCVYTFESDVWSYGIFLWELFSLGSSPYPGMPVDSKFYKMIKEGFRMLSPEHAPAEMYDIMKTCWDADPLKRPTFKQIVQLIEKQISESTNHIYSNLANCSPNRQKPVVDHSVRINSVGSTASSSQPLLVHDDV

SMILES | IC50 [1] [nM] | IC50 (osteoclast precursors) [nM] | IC50 [2] [nM] | IC50 (M-NFS-60 cells) [nM] | IC50 [3] [nM]
CCN1CCN(C(=O)Nc2ccc(Oc3ccnc(-c4cnc(C)s4)c3)c(C)n2)C1=O [Example 70, 3-ethyl-N-(6-methyl-5-((2-(2-methylthiazol-5-yl)pyridin-4-yl)oxy)pyridin-2-yl)-2-oxoimidazolidine-1-carboxamide] | 100 to 1000 | 10 to 100 | 10 to 100 | 100 to 1000 | > 1000
Cc1ccc(-c2cc(Oc3ccc(NC(=O)N4CCN(CC(F)(F)F)C4=O)nc3C)ccn2)cn1 [Example 53, N-(6-methyl-5-((6′-methyl-[2,3′-bipyridin]-4-yl)oxy)pyridin-2-yl)-2-oxo-3-(2,2,2-trifluoroethyl)imidazolidine-1-carboxamide] | > 1000 | 100 to 1000 | 10 to 100 | 10 to 100 | > 1000
Cn1cc(-c2cc(Oc3ccc(NC(=O)N4CCN(C5CCCC5)C4=O)nc3)ccn2)cn1 [Example 30, 3-cyclopentyl-N-(5-((2-(1-methyl-1H-pyrazol-4-yl)pyridin-4-yl)oxy)pyridin-2-yl)-2-oxoimidazolidine-1-carboxamide] | < 10 | < 10 | < 10 | < 10 | 100 to 1000
CCN1CCN(C(=O)Nc2ccc(Oc3ccnc(-c4cnn(C)c4)c3)cn2)C1=O [Example 45, 3-ethyl-N-(5-((2-(1-methyl-1H-pyrazol-4-yl)pyridin-4-yl)oxy)pyridin-2-yl)-2-oxoimidazolidine-1-carboxamide] | 10 to 100 | < 10 | < 10 | 10 to 100 | > 1000
Cn1cnc(-c2cc(Oc3ccc(NC(=O)N4CCN(C5CCOCC5)C4=O)nc3)ccn2)c1 [Example 83, N-(5-((2-(1-methyl-1H-imidazol-4-yl)pyridin-4-yl)oxy)pyridin-2-yl)-2-oxo-3-(tetrahydro-2H-pyran-4-yl)imidazolidine-1-carboxamide] | 10 to 100 | 10 to 100 | 10 to 100 | 10 to 100 | 100 to 1000
Cc1ncc(-c2cc(Oc3ccc(NC(=O)N4CCN(C5CCOCC5)C4=O)nc3)ccn2)s1 [Example 60, N-(5-((2-(2-methylthiazol-5-yl)pyridin-4-yl)oxy)pyridin-2-yl)-2-oxo-3-(tetrahydro-2H-pyran-4-yl)imidazolidine-1-carboxamide] | 10 to 100 | 10 to 100 | 10 to 100 | 10 to 100 | 100 to 1000
Cn1cnc(-c2cc(Oc3ccc(NC(=O)N4CCN(CC(F)(F)F)C4=O)nc3)ccn2)c1 [Example 84, N-(5-((2-(1-methyl-1H-imidazol-4-yl)pyridin-4-yl)oxy)pyridin-2-yl)-2-oxo-3-(2,2,2-trifluoroethyl)imidazolidine-1-carboxamide] | 10 to 100 | 10 to 100 | 10 to 100 | 10 to 100 | > 1000
COC(C)(C)CCN1CCN(C(=O)Nc2ccc(Oc3ccnc(-c4cnn(C)c4)c3)cn2)C1=O [Example 24, 3-(3-methoxy-3-methylbutyl)-N-(5-((2-(1-methyl-1H-pyrazol-4-yl)pyridin-4-yl)oxy)pyridin-2-yl)-2-oxoimidazolidine-1-carboxamide] | 10 to 100 | 10 to 100 | 10 to 100 | 10 to 100 | 100 to 1000
CCN1CCN(C(=O)Nc2ccc(Oc3ccnc(NC(C)=O)c3)c(C)n2)C1=O [Example 122, N-(5-((2-acetamidopyridin-4-yl)oxy)-6-methylpyridin-2-yl)-3-ethyl-2-oxoimidazolidine-1-carboxamide] | > 1000 | 100 to 1000 | 10 to 100 | 100 to 1000 | > 1000
Cc1cc(-c2cc(Oc3ccc(NC(=O)N4CCN(C5CCOCC5)C4=O)nc3)ccn2)ccn1 [Example 51, N-(5-((2′-methyl-[2,4′-bipyridin]-4-yl)oxy)pyridin-2-yl)-2-oxo-3-(tetrahydro-2H-pyran-4-yl)imidazolidine-1-carboxamide] | 10 to 100 | 100 to 1000 | 10 to 100 | 10 to 100 | > 1000
CCN1CCN(C(=O)Nc2ccc(Oc3ccnc(-c4ccc(N5CCN(C)CC5)cc4)c3)c(C)n2)C1=O [Example 68, 3-ethyl-N-(6-methyl-5-((2-(4-(4-methylpiperazin-1-yl)phenyl)pyridin-4-yl)oxy)pyridin-2-yl)-2-oxoimidazolidine-1-carboxamide] | 10 to 100 | < 10 | < 10 | 10 to 100 | > 1000
Cn1cc(-c2cc(Oc3ccc(NC(=O)N4CCN(CC(F)(F)F)C4=O)nc3)ccn2)cn1 [Example 48, N-(5-((2-(1-methyl-1H-pyrazol-4-yl)pyridin-4-yl)oxy)pyridin-2-yl)-2-oxo-3-(2,2,2-trifluoroethyl)imidazolidine-1-carboxamide] | < 10 | < 10 | < 10 | 10 to 100 | 100 to 1000
Cn1cc(-c2cc(Oc3ccc(NC(=O)N4CCN(C5COC5)C4=O)nc3)ccn2)cn1 [Example 50, N-(5-((2-(1-methyl-1H-pyrazol-4-yl)pyridin-4-yl)oxy)pyridin-2-yl)-3-(oxetan-3-yl)-2-oxoimidazolidine-1-carboxamide] | 10 to 100 | 10 to 100 | 10 to 100 | 10 to 100 | > 1000
COC[C@@H](C)N1CCN(C(=O)Nc2ccc(Oc3ccnc(-c4cnn(C)c4)c3)cn2)C1=O [Example 59, (R)-3-(1-methoxypropan-2-yl)-N-(5-((2-(1-methyl-1H-pyrazol-4-yl)pyridin-4-yl)oxy)pyridin-2-yl)-2-oxoimidazolidine-1-carboxamide] | 10 to 100 | < 10 | < 10 | < 10 | 100 to 1000
COCCN1CCN(C(=O)Nc2ccc(Oc3ccnc(NC(=O)N(C)C)c3)cn2)C1=O [Example 116, N-(5-((2-(3,3-dimethylureido)pyridin-4-yl)oxy)pyridin-2-yl)-3-(2-methoxyethyl)-2-oxoimidazolidine-1-carboxamide] | 10 to 100 | 10 to 100 | 10 to 100 | 100 to 1000 | > 1000
CCN1CCN(C(=O)Nc2ccc(Oc3ccnc(C(=O)NC)c3)cn2)C1=O [Example 115, 4-((6-(3-ethyl-2-oxoimidazolidine-1-carboxamido)pyridin-3-yl)oxy)-N-methylpicolinamide] | 100 to 1000 | 10 to 100 | 100 to 1000 | > 1000 | > 1000
Cn1cc(-c2cc(Oc3ccc(NC(=O)N4CCN(CC#N)C4=O)nc3)ccn2)cn1 [Example 55, 3-(cyanomethyl)-N-(5-((2-(1-methyl-1H-pyrazol-4-yl)pyridin-4-yl)oxy)pyridin-2-yl)-2-oxoimidazolidine-1-carboxamide] | > 1000 | 100 to 1000 | 100 to 1000 | 100 to 1000 | > 1000
Cn1cc(-c2cc(Oc3cc(F)c(NC(=O)N4CCN(CC(O)C(C)(C)C)C4=O)cc3Cl)ccn2)cn1 (stereo not drawn) [Example 112, N-(5-chloro-2-fluoro-4-((2-(1-methyl-1H-pyrazol-4-yl)pyridin-4-yl)oxy)phenyl)-3-(2-hydroxy-3,3-dimethylbutyl)-2-oxoimidazolidine-1-carboxamide] | 10 to 100 | – | 10 to 100 | 100 to 1000 | 100 to 1000
Cn1cc(-c2cc(Oc3ccc(NC(=O)N4CC(C)(C)N(C5CCCCC5)C4=O)nc3)ccn2)cn1 [Example 31, 3-cyclohexyl-4,4-dimethyl-N-(5-((2-(1-methyl-1H-pyrazol-4-yl)pyridin-4-yl)oxy)pyridin-2-yl)-2-oxoimidazolidine-1-carboxamide] | 100 to 1000 | – | 10 to 100 | > 1000 | > 1000
